Data on 12 molecules can be found in ChEMBL document CHEMBL1146729, “Rational design and synthesis of novel heparan sulfate mimetic compounds as antiadhesive agents” (Bioorg Med Chem Lett, 2004).

The target of assay [1] is T1, Collagenase ColA (Bacteria, UniProt P43153).
T1 sequence (P43153 whole entry): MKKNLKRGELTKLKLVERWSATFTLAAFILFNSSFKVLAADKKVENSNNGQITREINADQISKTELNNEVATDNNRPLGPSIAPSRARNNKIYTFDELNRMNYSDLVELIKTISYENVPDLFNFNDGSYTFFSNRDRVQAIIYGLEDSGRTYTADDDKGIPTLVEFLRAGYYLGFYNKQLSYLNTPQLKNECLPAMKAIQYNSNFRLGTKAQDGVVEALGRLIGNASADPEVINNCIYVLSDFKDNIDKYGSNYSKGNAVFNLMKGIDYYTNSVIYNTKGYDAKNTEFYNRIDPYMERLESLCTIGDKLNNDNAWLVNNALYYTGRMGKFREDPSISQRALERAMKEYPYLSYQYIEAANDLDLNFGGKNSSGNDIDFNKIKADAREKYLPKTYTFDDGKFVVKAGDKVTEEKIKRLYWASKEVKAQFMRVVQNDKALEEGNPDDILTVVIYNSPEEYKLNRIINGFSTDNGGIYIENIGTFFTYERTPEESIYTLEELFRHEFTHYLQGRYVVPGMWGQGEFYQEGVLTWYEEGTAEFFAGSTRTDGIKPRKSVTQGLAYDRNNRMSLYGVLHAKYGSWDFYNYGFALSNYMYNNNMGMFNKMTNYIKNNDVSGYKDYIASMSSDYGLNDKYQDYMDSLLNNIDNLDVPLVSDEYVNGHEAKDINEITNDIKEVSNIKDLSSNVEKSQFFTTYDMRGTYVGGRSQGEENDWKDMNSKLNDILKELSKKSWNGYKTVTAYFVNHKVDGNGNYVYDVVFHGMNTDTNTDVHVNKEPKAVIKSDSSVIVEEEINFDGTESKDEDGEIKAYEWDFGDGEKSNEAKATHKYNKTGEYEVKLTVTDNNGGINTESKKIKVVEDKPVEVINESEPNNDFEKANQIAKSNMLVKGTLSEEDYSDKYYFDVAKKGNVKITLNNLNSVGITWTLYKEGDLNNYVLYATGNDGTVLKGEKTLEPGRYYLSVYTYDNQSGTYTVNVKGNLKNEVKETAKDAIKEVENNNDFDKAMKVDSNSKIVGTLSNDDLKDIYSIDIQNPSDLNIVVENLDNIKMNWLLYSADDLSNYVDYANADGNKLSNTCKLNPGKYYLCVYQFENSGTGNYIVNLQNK
Briefly: Inhibition of collagenase at 100 uM (No inhibition). Further details: species or system Hathewaya histolytica.

Assay [2] deals with Coagulation factor X (Homo sapiens, UniProt P00742). As to the kind of experiment: Inhibition of Coagulation factor X at 100 uM; No inhibition.
Assay [3] deals with HT-1080. As to the kind of experiment: Compound (100 uM) was tested for percent inhibition against adhesion of human HT1080 cells; No inhibition. It is filed as functional, cell-based.
Assay [4] relates to HeLa. Briefly: Compound (100 uM) was tested for percent inhibition against adhesion of human HeLa cells; No inhibition. It is filed as functional, cell-based.
For assay [5], the target named is T2, Heparanase (Homo sapiens, UniProt Q9Y251).
T2 sequence (Q9Y251 whole entry): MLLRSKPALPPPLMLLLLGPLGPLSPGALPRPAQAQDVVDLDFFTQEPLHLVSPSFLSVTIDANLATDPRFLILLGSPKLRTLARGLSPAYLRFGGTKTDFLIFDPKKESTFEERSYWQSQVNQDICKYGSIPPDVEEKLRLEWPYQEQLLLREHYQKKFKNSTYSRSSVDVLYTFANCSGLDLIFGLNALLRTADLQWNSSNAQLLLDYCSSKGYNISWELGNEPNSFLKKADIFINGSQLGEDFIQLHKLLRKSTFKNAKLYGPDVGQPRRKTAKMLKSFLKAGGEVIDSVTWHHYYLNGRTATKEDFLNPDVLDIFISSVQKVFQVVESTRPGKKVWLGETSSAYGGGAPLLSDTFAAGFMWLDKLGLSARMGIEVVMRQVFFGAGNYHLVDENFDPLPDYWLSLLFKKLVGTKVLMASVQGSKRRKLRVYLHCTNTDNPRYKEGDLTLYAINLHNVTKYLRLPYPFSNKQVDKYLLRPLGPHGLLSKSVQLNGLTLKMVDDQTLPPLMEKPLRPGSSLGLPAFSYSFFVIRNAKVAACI
Briefly: Inhibitory concentration against heparanase; No inhibition.

The target of assay [6] is Matrix metalloproteinase-9 (Homo sapiens, UniProt P14780). Briefly: Inhibition of matrix metalloprotease-9 at 100 uM (inactive).
For assay [7], the target named is Serine protease 1 (Homo sapiens, UniProt P07477). As to the kind of experiment: Inhibitory activity against trypsin at 100 uM; No inhibition.
The target of assay [8] is 72 kDa type IV collagenase (Homo sapiens, UniProt P08253). As to the kind of experiment: Inhibition of matrix metalloprotease-2 at 100 uM (inactive).
Assay [9] addresses Prothrombin (Homo sapiens, UniProt P00734). Briefly: Compound (100 uM) was tested for inhibitory activity against thrombin; No inhibition.
Assay [10] has as its target T2, Heparanase. As to the kind of experiment: Compound was tested for inhibitory activity against heparanase.
Assay [11] deals with HT-1080. Briefly: Compound was tested for inhibitory activity against adhesion of human collagen IV/HT1080 cell. The format is functional, cell-based.
Assay [12] addresses T3, Integrin alpha-5/beta-1 (Homo sapiens, UniProt P05556+P08648). Briefly: Inhibition of human A431 cell adhesion to fibronectin. The format is functional, cell-based, A-431.
The target of assay [13] is T3, Integrin alpha-5/beta-1. As to the kind of experiment: Inhibition of human HT1080 cell adhesion to fibronectin. The format is functional, cell-based, HT-1080.
Assay [14] has as its target T3, Integrin alpha-5/beta-1. As to the kind of experiment: Inhibition of human HeLa cell adhesion to fibronectin. The format is functional, cell-based.
The subject of assay [15] is HT-1080. Briefly: Compound (100 uM) was tested for percent inhibition against adhesion of human HT1080 cells. The format is functional.
Assay [16] concerns HT-1080. Briefly: Compound was tested for inhibitory activity against growth of human HT1080 cells. It is filed as functional, cell-based.
Assay [17] concerns HT-1080. Briefly: Compound was tested for inhibitory activity against invasion of human HT1080 cells. It is filed as functional, cell-based.
For assay [18], the system named is HT-1080. As to the kind of experiment: Compound was tested for inhibitory activity against migration of human HT1080 cells. The format is functional, cell-based.
Assay [19] relates to HeLa. Briefly: Compound (100 uM) was tested for percent inhibition against adhesion of human HeLa cells. The format is functional.
Assay [20] deals with HT-1080. As to the kind of experiment: Compound was tested for inhibitory activity against adhesion of human laminin/HT1080 cells. It is filed as functional, cell-based.
Assay [21] has as its system HT-1080. Briefly: Compound was tested for inhibitory activity against adhesion of human Plastic/HT1080 cells. It is filed as functional, cell-based.

Sequence of Matrix metalloproteinase-9 (P14780 whole entry): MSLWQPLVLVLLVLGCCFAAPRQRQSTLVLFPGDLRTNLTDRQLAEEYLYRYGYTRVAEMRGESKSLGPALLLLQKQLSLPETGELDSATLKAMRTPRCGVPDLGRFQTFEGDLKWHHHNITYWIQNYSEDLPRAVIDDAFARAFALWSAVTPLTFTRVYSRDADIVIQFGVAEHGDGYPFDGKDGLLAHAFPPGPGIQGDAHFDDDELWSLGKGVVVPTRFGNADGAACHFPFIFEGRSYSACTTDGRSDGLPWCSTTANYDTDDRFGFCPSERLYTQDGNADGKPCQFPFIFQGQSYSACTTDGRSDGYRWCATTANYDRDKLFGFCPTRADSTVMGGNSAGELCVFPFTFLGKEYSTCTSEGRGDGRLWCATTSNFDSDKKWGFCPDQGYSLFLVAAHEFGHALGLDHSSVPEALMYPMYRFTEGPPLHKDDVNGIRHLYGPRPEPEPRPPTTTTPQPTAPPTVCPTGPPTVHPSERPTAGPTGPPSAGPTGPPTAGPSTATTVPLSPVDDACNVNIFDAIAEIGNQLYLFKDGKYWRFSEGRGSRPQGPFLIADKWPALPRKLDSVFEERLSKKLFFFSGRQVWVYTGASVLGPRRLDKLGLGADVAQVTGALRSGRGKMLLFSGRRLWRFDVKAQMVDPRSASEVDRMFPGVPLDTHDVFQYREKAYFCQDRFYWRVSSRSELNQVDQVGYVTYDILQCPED
Sequence of Coagulation factor X (P00742 41-179 limits assumed): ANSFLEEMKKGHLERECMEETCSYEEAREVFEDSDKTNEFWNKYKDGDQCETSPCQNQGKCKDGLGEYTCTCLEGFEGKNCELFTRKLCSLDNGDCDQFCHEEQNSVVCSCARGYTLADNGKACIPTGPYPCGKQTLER
Sequence of Coagulation factor X (P00742 235-488 limits assumed): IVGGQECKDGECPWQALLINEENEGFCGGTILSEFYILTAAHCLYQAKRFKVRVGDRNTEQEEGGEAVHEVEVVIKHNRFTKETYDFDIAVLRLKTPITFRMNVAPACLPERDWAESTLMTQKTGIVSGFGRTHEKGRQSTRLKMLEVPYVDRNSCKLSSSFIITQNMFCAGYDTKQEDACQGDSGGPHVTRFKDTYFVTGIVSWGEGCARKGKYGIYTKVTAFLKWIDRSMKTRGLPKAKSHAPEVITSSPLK
T3 sequence (P05556 21-798 limits assumed): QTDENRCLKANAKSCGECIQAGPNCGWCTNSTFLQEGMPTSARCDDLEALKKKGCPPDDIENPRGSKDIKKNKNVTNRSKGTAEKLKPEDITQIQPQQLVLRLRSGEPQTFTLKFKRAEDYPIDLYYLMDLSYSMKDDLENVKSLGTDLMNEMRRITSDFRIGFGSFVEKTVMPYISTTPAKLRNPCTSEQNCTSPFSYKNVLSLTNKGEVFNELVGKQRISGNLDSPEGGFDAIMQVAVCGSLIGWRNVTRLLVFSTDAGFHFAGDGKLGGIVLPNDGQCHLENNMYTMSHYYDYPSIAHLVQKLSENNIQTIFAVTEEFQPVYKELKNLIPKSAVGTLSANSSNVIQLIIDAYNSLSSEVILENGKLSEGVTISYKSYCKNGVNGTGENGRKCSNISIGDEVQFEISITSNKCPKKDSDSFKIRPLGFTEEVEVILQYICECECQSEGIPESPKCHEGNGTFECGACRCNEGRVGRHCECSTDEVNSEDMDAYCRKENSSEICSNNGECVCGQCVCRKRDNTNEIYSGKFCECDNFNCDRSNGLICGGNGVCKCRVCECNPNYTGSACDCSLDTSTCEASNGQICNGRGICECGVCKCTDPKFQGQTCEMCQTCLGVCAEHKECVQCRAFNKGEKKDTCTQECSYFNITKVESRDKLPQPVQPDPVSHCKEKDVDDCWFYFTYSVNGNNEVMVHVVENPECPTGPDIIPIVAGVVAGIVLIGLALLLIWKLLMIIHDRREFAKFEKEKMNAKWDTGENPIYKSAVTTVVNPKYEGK
T3 sequence (P08648 42-894 limits assumed): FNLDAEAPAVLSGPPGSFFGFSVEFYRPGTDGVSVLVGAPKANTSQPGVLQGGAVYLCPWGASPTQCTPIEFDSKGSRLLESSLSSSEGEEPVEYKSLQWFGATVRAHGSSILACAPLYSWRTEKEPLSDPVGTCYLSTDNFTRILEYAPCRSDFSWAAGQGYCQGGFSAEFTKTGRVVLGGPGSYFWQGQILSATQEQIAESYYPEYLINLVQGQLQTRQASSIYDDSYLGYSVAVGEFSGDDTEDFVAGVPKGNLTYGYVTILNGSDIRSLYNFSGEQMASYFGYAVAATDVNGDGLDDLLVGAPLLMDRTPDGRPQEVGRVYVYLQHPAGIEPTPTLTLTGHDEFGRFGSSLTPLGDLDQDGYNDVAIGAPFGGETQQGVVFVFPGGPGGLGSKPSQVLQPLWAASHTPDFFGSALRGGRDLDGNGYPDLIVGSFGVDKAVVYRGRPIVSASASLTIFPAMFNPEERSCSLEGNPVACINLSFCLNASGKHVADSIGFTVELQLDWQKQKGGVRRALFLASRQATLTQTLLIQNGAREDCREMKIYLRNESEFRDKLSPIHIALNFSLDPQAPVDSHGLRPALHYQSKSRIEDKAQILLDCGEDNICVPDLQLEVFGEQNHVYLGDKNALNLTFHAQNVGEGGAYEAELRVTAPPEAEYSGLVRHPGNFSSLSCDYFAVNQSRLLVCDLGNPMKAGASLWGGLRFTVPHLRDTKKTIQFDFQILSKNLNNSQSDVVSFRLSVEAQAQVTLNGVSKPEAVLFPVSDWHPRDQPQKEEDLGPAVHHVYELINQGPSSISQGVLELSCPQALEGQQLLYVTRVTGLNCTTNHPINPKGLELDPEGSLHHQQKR
T3 sequence (P08648 895-1049 limits assumed): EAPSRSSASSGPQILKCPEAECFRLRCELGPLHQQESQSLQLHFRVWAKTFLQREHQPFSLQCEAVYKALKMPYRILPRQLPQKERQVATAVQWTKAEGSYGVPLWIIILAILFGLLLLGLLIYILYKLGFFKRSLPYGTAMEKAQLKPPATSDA
Sequence of 72 kDa type IV collagenase (P08253 whole entry): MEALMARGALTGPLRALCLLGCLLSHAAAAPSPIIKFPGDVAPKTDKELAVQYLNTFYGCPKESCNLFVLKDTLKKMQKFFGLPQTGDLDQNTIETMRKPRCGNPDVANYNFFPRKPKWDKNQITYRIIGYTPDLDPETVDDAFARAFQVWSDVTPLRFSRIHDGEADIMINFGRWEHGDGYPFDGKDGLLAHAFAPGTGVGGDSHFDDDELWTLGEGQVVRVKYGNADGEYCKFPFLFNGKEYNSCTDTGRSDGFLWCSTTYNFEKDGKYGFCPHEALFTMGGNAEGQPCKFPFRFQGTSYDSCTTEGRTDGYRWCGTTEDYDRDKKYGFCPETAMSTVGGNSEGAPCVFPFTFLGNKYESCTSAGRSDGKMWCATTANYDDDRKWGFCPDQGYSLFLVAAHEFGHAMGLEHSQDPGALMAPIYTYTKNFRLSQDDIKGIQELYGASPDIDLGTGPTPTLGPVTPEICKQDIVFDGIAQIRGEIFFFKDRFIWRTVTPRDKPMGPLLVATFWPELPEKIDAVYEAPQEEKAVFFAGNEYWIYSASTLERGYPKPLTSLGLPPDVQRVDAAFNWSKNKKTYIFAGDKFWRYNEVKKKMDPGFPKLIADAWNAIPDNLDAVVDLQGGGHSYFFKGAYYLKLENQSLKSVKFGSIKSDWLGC
Sequence of Serine protease 1 (P07477 whole entry): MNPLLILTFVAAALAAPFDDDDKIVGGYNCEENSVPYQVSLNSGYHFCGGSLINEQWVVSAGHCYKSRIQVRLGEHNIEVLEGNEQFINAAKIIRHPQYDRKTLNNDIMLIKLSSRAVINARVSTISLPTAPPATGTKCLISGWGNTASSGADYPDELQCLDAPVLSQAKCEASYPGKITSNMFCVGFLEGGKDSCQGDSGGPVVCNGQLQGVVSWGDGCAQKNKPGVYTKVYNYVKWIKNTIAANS

`O=C(O)c1ccc(Sc2ccc(C(=O)c3ccccc3C(=O)O)cc2[N+](=O)[O-])cc1`: the IC50 result in [1], in assay [2], in [3], in assay [4], in assay [5] and in assay [6] was “Not Active” throughout. Besides, the IC50 entry in assay [7], in assay [8] and in [9] was “Not Active” each time.
Turning to `O=C(O)c1ccccc1C(=O)c1ccc(F)c([N+](=O)[O-])c1`, the IC50 result in assay [1], in assay [2], in assay [3], in assay [4], in [5] and in assay [6] was “Not Active” throughout. The IC50 entry in assay [7], in [8] and in assay [9] was “Not Active” throughout.
As for `CCNc1ccc(C(=O)c2ccccc2C(=O)O)cc1[N+](=O)[O-]`, the IC50 result in assay [1], in assay [2], in [3], in assay [4], in assay [5] and in [6] was “Not Active” throughout. Also, the IC50 result in assay [7], in assay [8] and in assay [9] was “Not Active” each time.
In the case of `CC(=O)OC(=O)c1ccccc1C(=O)c1ccc(Sc2ccccc2)c([N+](=O)[O-])c1`, the IC50 result in assay [1], in assay [2], in assay [3], in assay [4], in assay [5] and in [6] was “Not Active” each time. The IC50 result in assay [7], in assay [8] and in [9] was “Not Active” in each case.
Consider `O=C(O)c1ccccc1C(=O)c1ccc(Sc2ccccc2)c([N+](=O)[O-])c1`, for which the IC50 (commonly the concentration at which inhibition is half-maximal) is “Not Active” in assay [1]; “Not Active” in assay [2]; “Not Active” in assay [3]; “Not Active” in assay [4]; “Not Active” in [5]; 300 µM in assay [10]. Moreover, the IC50 result in [6], in [7], in [8] and in assay [9] was “Not Active” each time.
With `O=C(O)c1ccccc1C(=O)c1ccc(F)cc1`, the IC50 entry in assay [1], in assay [2], in assay [3], in assay [4], in assay [5] and in [6] was “Not Active” each time. In addition, the IC50 result in assay [7], in assay [8] and in assay [9] was “Not Active” throughout.
As to `O=C(O)c1ccccc1C(=O)c1ccc(Oc2ccccc2)c([N+](=O)[O-])c1`, the IC50 result in assay [1], in assay [2], in assay [3], in [4], in assay [5] and in [6] was “Not Active” each time. For the same molecule, the IC50 result in assay [7], in [8] and in assay [9] was “Not Active” in each case.
As for `CCSc1ccc(C(=O)c2ccccc2C(=O)O)cc1[N+](=O)[O-]`, the IC50 result in assay [1], in assay [2], in assay [3], in [4], in assay [5] and in assay [6] was “Not Active” each time. Also, the IC50 result in assay [7], in [8] and in assay [9] was “Not Active” in each case.
Regarding `O=C(O)c1ccccc1C(=O)c1ccc(NC2CCCCC2)c([N+](=O)[O-])c1`, the half-maximal inhibitory concentration (IC50) result in assay [1], in assay [2], in assay [3], in [4], in assay [5] and in assay [6] was “Not Active” each time. The IC50 result in assay [7], in assay [8] and in [9] was “Not Active” throughout.
Regarding `CC(=O)OC(=O)c1ccccc1C(=O)c1ccc(F)c([N+](=O)[O-])c1`, the IC50 in assay [11] was 43 µM; in assay [1], “Not Active”; in [2], “Not Active”; in assay [12], 8 µM; in [13], 7 µM; in [14] it was 16 µM. Further, the half-maximal inhibitory concentration (IC50) in [16] is 10 µM; in assay [17] it was 2 µM; in assay [18] it was 2 µM; in assay [5], “Not Active”; in assay [20], 17 µM; in assay [6], “Not Active”. The IC50 is 5 µM in assay [21], “Not Active” in assay [7], “Not Active” in assay [8] and “Not Active” in assay [9]. Further, the Inhibition (in general, the percentage by which the read-out fell short of the control) stood at 89% in assay [15] and 85% in assay [19].
As for `CCOc1ccc(C(=O)c2ccccc2C(=O)O)cc1[N+](=O)[O-]`, the IC50 entry in assay [1], in assay [2], in assay [3], in assay [4], in assay [5] and in [6] was “Not Active” each time. Also, the IC50 result in assay [7], in assay [8] and in assay [9] was “Not Active” each time.
`O=C(O)CC(Sc1ccc(C(=O)c2ccccc2C(=O)O)cc1[N+](=O)[O-])C(=O)O` (stereo not drawn): the IC50 result in assay [1], in assay [2], in assay [3], in assay [4], in [5] and in assay [6] was “Not Active” in each case. Further, the IC50 entry in assay [7], in assay [8] and in [9] was “Not Active” in each case.
